Experimental data published in PubChem BioAssay AID179 (DTP/NCI, 2004).
pEC50, pIC50: −log10 of the molar value. Calls of active or inactive are those of the source.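 How the source made its calls: active means compounds giving half or more protection of infected cells from virus-caused growth loss, again on retest; inactive means the rest.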

Tested on: CEM cells HIV-1 protection, formazan growth assay
Assay: NCI AIDS Antiviral Assay
Conditions: for pIC50: measured here: growth of uninfected CEM cells
In short: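 Human CEM cells, uninfected and HIV-1-infected, received five drug concentrations, and growth was read by soluble formazan assay. Compounds giving at least 50% protection were retested; reproducible 100% protection defined confirmed active.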

SMILES	pEC50	pIC50	outcome
COc1ccc([C@]23CCN(S(=O)(=O)c4ccc(C)cc4)[C@H]2[C@H](CO)C2(CC3)OCC(C)(C)CO2)cc1OC	< 4.00	4.06	–
O=C(Nc1ccc(F)cc1)C(=O)C(C1OC(=O)c2ccccc21)[N+](=O)[O-] (stereo unspecified)	< 3.16	3.45	–
O=C(/C=C/c1ccccc1O)c1ccccc1Cl	< 4.41	< 4.41	–
CC1=C(C(=O)Nc2ccc([N+](=O)[O-])cc2)C(c2ccc3c(c2)OCO3)C(C(=O)Nc2ccc([N+](=O)[O-])cc2)=C(C)N1	< 5.17	< 5.17	–
COC(=O)C(C)[P+](c1ccccc1)(c1ccccc1)c1ccccc1 (stereo unspecified)	< 3.70	5.24	–
CC1(C)/C(=N\NC(N)=O)C2CCC1C2 (stereo unspecified)	< 3.70	< 3.70	–
CCCc1cc(=O)oc2c3c(cc(OC)c12)O[C@H](C)[C@H](C)[C@@H]3O	< 3.70	4.41	–
c1cc(-c2cn[nH]c2)cc(-c2cn[nH]c2)c1	–	–	inactive
CC(C)(C)[Si](C)(C)OC[C@H]1O[C@@H](n2ccc(=O)[nH]c2=O)[C@H](O[Si](C)(C)C(C)(C)C)[C@]1(O)[C@H](N=[N+]=[N-])C(N)=O	< 3.70	5.22	–
COc1ccc(/C=C2\N=C3N(Cc4ccccc4)C=C(N)N3C2=O)cc1	< 3.70	< 3.70	–
Cc1ccc(NC(=O)/C(CC2N=c3c(ccc4c(O)c5ccccc5c(O)c34)=NC2O)=N/NC(C)(C)C)cc1 (stereo unspecified)	< 5.00	< 5.00	–
CCN(CC)c1c(-c2c(N(CC)CC)c(OC(C)=O)c3sccn3c2=O)c(=O)n2ccsc2c1OC(C)=O	< 3.70	< 3.70	–
CCOC(=O)Cn1c(=O)[nH]c(=O)c2[nH]cnc21	< 2.98	< 2.98	–
Clc1cccc(-c2sc(-c3ccsc3)cc2Cc2ccsc2)c1	–	–	inactive
CN(C)CCNC(=O)Cn1cnc2cccc([N+](=O)[O-])c2c1=O	< 3.70	< 3.70	–
Nc1ccc(/C=C\c2ccc([N+](=O)[O-])cc2S(=O)(=O)O)c(S(=O)(=O)O)c1	< 3.70	< 3.70	–
CC(C)(C)c1ccc(Oc2ccc3c(c2)-c2nc-3nc3[nH]c(nc4nc(nc5[nH]c(n2)c2ccc(Oc6ccc(C(C)(C)C)cc6C(C)(C)C)cc52)-c2cc(Oc5ccc(C(C)(C)C)cc5C(C)(C)C)ccc2-4)c2ccc(Oc4ccc(C(C)(C)C)cc4C(C)(C)C)cc32)c(C(C)(C)C)c1	< 5.01	< 5.01	–
CCCC(=O)Nc1ccc(C2=NNC(=O)C3CC23)cc1 (stereo unspecified)	< 3.70	< 3.70	–
CC(NC(=O)C(=O)N/N=C1\CC(c2ccccc2)Oc2ccccc21)c1ccccc1 (stereo unspecified)	–	–	inactive
O=C1NC(=O)C(CCCCO)N1 (stereo unspecified)	–	–	inactive

SMILES	pEC50	pIC50	outcome
COc1ccc(C2c3cc4c(cc3OC(N3CCOCC3)C2C)OCO4)cc1OC (stereo unspecified)	< 3.70	5.11	–
CCN(CC)CCCNCc1cc(Cl)c2cccnc2c1O	< 3.70	5.01	–
C=CCn1c(=N)/c(=C(\N)O)s/c1=C1/SC(=S)N(c2ccc(C)cc2)C1=O	< 5.17	< 5.17	–
COc1ccc(/C(=C/n2ccnc2)C(=O)c2ccc(OC)c(OC)c2)cc1	< 3.70	< 3.70	–
COc1cc(N(C)C)c(OC)cc1/C=C1\Cc2ccccc2C1=O	< 4.24	4.33	–
CC(=O)Nc1ccc(/C=C/C(=O)c2sc(-n3nc(-c4ccccc4)cc3-c3ccccc3)nc2C)cc1	< 4.70	4.77	–
CC1=C(C)SC(=C2Sc3nc(O)[nH]c(=O)c3S2)S1	< 3.70	3.84	–
Cn1nc2n(c1=O)CCCN2	< 3.70	< 3.70	–
O=C1CSC(c2cccc(Cl)c2)N1N1C(=O)CSC1c1cccc(Cl)c1 (stereo unspecified)	< 3.70	4.18	–
CC1OC(OC2C(CO)OC(O[C@H]3CC[C@@]4(C)C(=CC[C@H]5[C@@H]6C[C@@H]7O[C@](O)(CC[C@@H](C)COC8OC(CO)C(O)C(O)C8O)[C@@H](C)[C@@H]7[C@@]6(C)CC[C@@H]54)C3)C(OC3OC(C)C(O)C(O)C3O)C2O)C(O)C(O)C1O (stereo partly specified)	< 3.70	5.73	–
COc1ccc(N2C(=O)C3CC4=CC(=O)C[C@H]4[C@H]32)cc1 (stereo partly specified)	< 3.70	3.82	–
CCn1c2c(c3ccccc31)CCSC2(C)CCN(C)C (stereo unspecified)	–	–	inactive
NC(=O)CNC(=O)c1ccccc1SC(=O)CCC[n+]1ccccc1	5.93	4.59	–
OCCN1c2ccccc2Sc2ccccc21	< 3.70	3.98	–
CN(C)c1ccc(/C=N\NC(=O)c2ccccc2Nc2ccccc2C(=O)N/N=C/c2ccc(N(C)C)cc2)cc1	4.18	< 3.70	–
NCCN1C(=O)c2ccccc2C1c1ccc(Cl)cc1 (stereo unspecified)	< 3.70	< 3.70	–
CC(=O)N(CCc1ccccc1)C(C#N)c1ccc(OCCCCCCCCCCOc2ccc(C(C#N)N(CCc3ccccc3)C(C)=O)cc2)cc1 (stereo unspecified)	< 4.00	< 4.00	–
COc1cc(OC)c(/C=N\Nc2nc3ccccc3c(=O)n2-c2ccccc2)c(OC)c1	< 4.30	4.43	–
CCC12C=CCN3CC[C@]4(C(=C(C(=O)OC)[C@@H]1Nc1ccn(C5OC(COC(C)=O)C(OC(C)=O)C5OC(C)=O)c(=O)n1)Nc1ccccc14)C32 (stereo partly specified)	< 4.57	5.44	–
CN(C)CCCN1c2ccccc2Sc2ccc(C(F)(F)F)cc21	< 3.70	3.97	–

SMILES	pEC50	pIC50	outcome
O=C(CCC(=O)Nc1ccc(Cl)c(Cl)c1)CC(=O)c1ccc2ccccc2c1	–	–	inactive
COc1cc2c(cc1OC)C(=O)N1CCCC1C(=O)S2 (stereo unspecified)	–	–	inactive
CC1CCCCCC(=O)c2c(O)cc(O)cc2CC(=O)O1 (stereo unspecified)	< 3.07	3.93	–
COC(=O)c1sc2c(Cl)c(Cl)sc2c1Cl	< 4.30	< 4.30	–
Cc1ccc(NC(=O)c2c(N)c(C#N)c3n2CCC3)cc1	< 3.70	< 3.70	–
O=C(O)C1(P(=O)(O)O)CC1	–	–	inactive
Cn1c(=O)cn[nH]c1=O	< 3.70	< 3.70	–
Cc1cc(C2CC(O)C(CO)O2)c(F)cc1F (stereo unspecified)	< 3.70	< 3.70	–
CCOC(=O)c1ccc(CS(=O)(=O)c2ccccc2C(=O)OCC)c([N+](=O)[O-])c1	< 4.07	< 4.07	–
COC(=O)CC1(C)[C@H](O)[C@H]2OC(C)(C)O[C@H]2[C@@H]1O (stereo partly specified)	< 3.02	< 3.02	–
Cc1nc2cccc([N+](=O)[O-])c2c(NCCCN(C)C)c1C	< 3.70	4.39	–
Cc1cn(C(C)OCCN2C(=O)c3ccccc3C2=O)c(=O)[nH]c1=O (stereo unspecified)	< 3.70	< 3.70	–
O=C(/C=C/c1c(O)c2ccccc2[nH]c1=O)CC(=O)C(=O)Nc1cccc(O)c1	< 3.76	< 3.76	–
O=C(O)c1cccc(S(=O)(=O)c2ccc([N+](=O)[O-])cc2)c1	< 3.70	< 3.70	–
C/C(=C/C(=O)O)CC/C=C(/C)C(=O)O	< 3.32	< 3.32	–
COCN1C(=N)C(C(=O)OC(C)(C)C)=C2C=C(O)C=CC21C (stereo unspecified)	< 3.70	5.84	–
N#Cc1ncc(C[P+](c2ccccc2)(c2ccccc2)c2ccccc2)nc1N	< 3.70	3.77	–
Nc1ncnc2c1[nH]c(=O)n2-c1ccccc1	< 3.70	3.75	–
CCNC(CCCC(NCC)P(=O)(O)O)P(=O)(O)O (stereo unspecified)	–	–	inactive
Cc1cccc(C)c1NC(=O)C(=O)CC(=O)/C=C/c1ccccc1	< 3.11	3.41	–
